Laboratory results taken from publication PMC6926478, “Structures of Respiratory Supercomplex I+III2 Reveal Functional and Conformational Crosstalk” (Molecular Cell, 2019).

Target: T1, SC I+III2 (complex I, NADH/FMN site) (Ovis aries, UniProt Z9LRO2FUZ7)
T1 construct: native supercomplex I+III2 from heart mitochondria, LMNG-extracted, amphipol A8-35 stabilised; complex I has 45 subunits, ~1 MDa; with NADH dehydrogenase [ubiquinone] flavoprotein 2, mitochondrial; NADH-ubiquinone oxidoreductase 75 kDa subunit, mitochondrial; NADH dehydrogenase [ubiquinone] iron-sulfur protein 2, mitochondrial; NADH dehydrogenase [ubiquinone] iron-sulfur protein 7, mitochondrial; NADH-ubiquinone oxidoreductase chain 1; Cytochrome b
Assay: cryoEM structure, […] Å focused map of CI peripheral arm
Format: binding
Conditions: native cofactor

## Cc1cc2nc3c(=O)[nH]c(=O)nc-3n(C[C@H](O)[C@H](O)[C@H](O)COP(=O)(O)O)c2cc1C [FMN]
  cryoEM structure, 3.8 Å focused map of CI peripheral arm: The FMN, FeS clusters, and heme groups are shown colored by atom
